{
  "source": "patent US20100204470A1",
  "about": "“METHOD FOR SALT PREPARATION” (Sandoz AG, priority 2006, published 2010)",
  "key": {"[1]": {"experiment": "Stability of solvate under air drying conditions (desolvation)"}, "[2]": {"conditions": "anhydrous vs monohydrate hydrochloride; disclosed in WO 95/07902; cited from earlier work"}, "[3]": {"conditions": "compared with monohydrate salt form; disclosed in WO 95/07902; cited from earlier work"}, "[4]": {"experiment": "Storage in a dessicator at a humidity level of 33% (hygroscopicity, conversion to hydrous form)", "format": "physicochemical", "source_text": "The present invention also relates to a novel anhydrous hydrochloride salt of Moxifloxacin, herein called form IV. […] More particular, the invention relates to form IV characterized by an X-ray powder diffraction pattern with peaks at about 10.0, 13.2, 15.3, 17.2 and 24.4 degrees 2 theta. The invention also relates to form IV characterized by infrared absorption bands at about 2704, 1720, 1434, 1312 and 1273 cm^−1.\nThe new anhydrous form IV may preferably be prepared by desolvating Moxifloxacin hydrochloride methylene dichloride solvate by drying in vacuum at about 100° C. […] The invention also relates to pharmaceutical compositions comprising form IV."}, "[5]": {"experiment": "General solubility / stability of the crystalline salt", "format": "physicochemical", "conditions": "qualitative statement"}, "[6]": {"conditions": "dessicator, humidity level 33%, 48 hours"}},
  "note": "Where a name gives a salt, the structure may show the parent alone.",
  "data": [
    {"molecule": "Raloxifene Hydrochloride THF hemisolvate", "values": [
      {"measurement": "stability / desolvation under air drying conditions", "setting": "[1]", "value": "stable and does not desolvate"}
    ]},
    {"molecule": "COc1c(C)c2c(c(O)c1C/C=C(\\C)CCC(=O)OCCN1CCOCC1)C(=O)OC2", "note": "[mycophenolate mofetil hydrochloride]", "values": [
      {"measurement": "increase in solubility over the monohydrate salt form", "setting": "[2]", "value": "two-fold"},
      {"measurement": "stability characteristics", "setting": "[3]", "value": "possessing the stability characteristics of the monohydrate salt form"}
    ]},
    {"molecule": "Moxifloxacine Hydrochloride Methylene Dichloride Solvate", "values": [
      {"measurement": "hygroscopicity (water uptake)", "setting": "[4]; 1 day at 33% relative humidity", "value": "not hygroscopic"},
      {"measurement": "stability / desolvation under air drying conditions", "setting": "[1]", "value": "stable and does not desolvate"}
    ]},
    {"molecule": "COc1c(N2C[C@@H]3CCCN[C@@H]3C2)c(F)cc2c(=O)c(C(=O)O)cn(C3CC3)c12.Cl", "note": "[Moxifloxacine Hydrochloride Anhydrous Form IV]", "values": [
      {"measurement": "moisture content after humidity storage", "setting": "[4]; after 48 hours at humidity level 33%", "value": 0.6, "unit": "%"},
      {"measurement": "hygroscopicity relative to other anhydrous forms", "setting": "[4]; compared with anhydrous form II (US 5849 752, Bayer) and anhydrous form B (WO 2005/054240, Chemi Spa)", "value": "lower hygroscopicity"},
      {"measurement": "XRPD pattern after humidity storage", "setting": "[4]; [6]", "value": "no alteration"},
      {"measurement": "conversion to a hydrous form", "setting": "[4]; [6]", "value": "does not convert to a hydrous form"},
      {"measurement": "moisture content before humidity storage", "setting": "[4]; initial value", "value": 0.5, "unit": "%"}
    ]},
    {"molecule": "COc1c(N2C[C@@H]3CCCN[C@@H]3C2)c(F)cc2c(=O)c(C(=O)O)cn(C3CC3)c12", "note": "[Moxifloxacine hydrochloride]", "values": [
      {"measurement": "solubility and/or stability", "setting": "[5]", "value": "good solubility and/or stability"}
    ]}
  ]
}
